Laboratory results: patent US20120190752A1, “EXO-S-MECAMYLAMINE METHOD, USE, AND COMPOUND FOR TREATMENT” (Targacept Inc., priority 2009, published 2012)

System: subjects with major depressive disorder (MDD) who were inadequate responders to citalopram
Experiment: QIDS-SR, Phase 2b add-on trial
Format: in vivo, human
From the text: The 30 item Inventory of Depressive Symptomatology (IDS) (Rush et al. 1986, 1996) and the 16 item Quick Inventory of Depressive Symptomatology (QIDS) (Rush et al. 2003) are designed to assess the severity of depressive symptoms. Both the IDS and the […] are available in the clinician (IDS-C30 and QIDS-C16) and self-rated versions (IDS-SR30 and QIDS-SR16). The IDS and QIDS assess all the criterion symptom domains designated by the American Psychiatry Association Diagnostic and Statistical Manual of Mental Disorders—4th edition (DSM-IV) (APA 1994) to diagnose a major depressive episode. These assessments can be used to screen for depression, although they have been used predominantly as measures of symptom severity. The seven day period prior to assessment is the usual time frame for assessing symptom severity. The […] and QIDS-SR16 cover only the nine diagnostic symptom domains used to characterize a major depressive episode, without items to assess atypical, melancholic or their commonly associated symptoms. All 16 items on the QIDS are included within the IDS. The IDS-C30 and […] include the criterion symptoms, as well as commonly associated symptoms (e.g. anxiety, irritability) and items relevant to melancholic, or atypical symptom features. Both versions are sensitive to change, with medications, psychotherapy, or somatic treatments, making them useful for both research and clinical purposes. The psychometric properties of both the IDS and QIDS, have both been established in various study samples. See Rush A J, Trivedi M H, Ibrahim H M, et al., The 16-item Quick Inventory of Depressive Symptomatology (QIDS), Clinician Rating (QIDS-C), and Self-Report (QIDS-SR): a psychometric evaluation in patients with chronic major depression. Biol Psychiatry.; 54: 573-583 (2003).
In more detail, a multi-center double-blind, randomized, placebo-controlled, parallel group, flexible dose titration study of TC-5214 as adjunctive therapy in subjects with major depressive disorder (MDD) who were inadequate responders to citalopram was conducted in centers in the US and India. The study consisted of a screening period, baseline/washout period, open-label phase, double-blind phase, and a follow-up visit. Subject participation in the study could continue for up to 16 weeks of treatment. Following a washout period of up to 28 days for other antidepressants, subjects with MDD and a MADRS total score >/=28 and a Clinical Global Impression-Severity (CGI-S) score >/=4 were enrolled on Day 1 into an open-label citalopram-only phase of the study. This phase lasted 8 weeks, with citalopram (CIT) dose increased from a once-daily dose of 20 mg (Day 1 through Week 4) to 40 mg (Week 4 through Week 8). A total of 579 subjects entered the open-label citalopram phase. At Week 8, subjects who tolerated 40 mg CIT, but whose MADRS score was reduced <50% from baseline and no lower than 17, and CGI-S≧4, were considered inadequate responders. These subjects (n=270) were randomized in a double-blind fashion to receive either placebo or TC-5214-23 as add-on therapy to continued CIT. The double-blind phase of the study also lasted 8 weeks (Week 8 to Week 16). Study drug, TC-5214-23 or placebo, was started at 2 mg daily (1 mg twice per day [BID] dosing), added on to continuing CIT (40 mg PO qd). After 2 weeks of treatment, the dose of TC-5214 could be increased to 4 mg (2 mg BID) or continued unchanged, with up-titration based upon good tolerability and inadequate therapeutic response. After a further 2 weeks, the dose of TC-5214 could be increased again to 8 mg (4 mg BID) if judged appropriate by the investigator, based upon good tolerability and inadequate therapeutic response. At any time during the double-blind phase of the study, placebo or TC-5214-23 could be reduced to the previous dose level following the emergence of unacceptable adverse events (AEs). […] At this follow-up, any signs or symptoms of relapse were evaluated. […]

[1] = ITT N=265, week of double-blind treatment
[2] = ITT and PP, at every assessment week, result in words
[3] = ITT, Double Blind Week 18 (Follow-up)
[4] = ITT, Double Blind Week 18 LOCF (Follow-up), change from Week 16
[5] = PP, Double Blind Week 16 LOCF (change from Week 8)
[6] = PP, Double Blind Week 18 (Follow-up)
[7] = PP, Double Blind Week 18 LOCF (Follow-up), change from Week 16

CNC1(C)C2CCC(C2)C1(C)C (stereo in doubt) [TC-5214, (S)—N,2,3,3-tetramethylnorbornan-2-amine]
onset of separation from placebo, subject rated remission QIDS-SR≦5 (FIG. 2) [1]: ≤ 2 week
onset of separation from placebo, subject rated response QIDS-SR≧50% (FIG. 3) [1]: ≤ 1 week
QIDS-SR score change from baseline compared with placebo (ITT and PP populations, result in words): statistically significant decreases (improvements)
QIDS remission proportion compared with placebo [2]: higher proportion of subjects with remission
QIDS responders (reduction from baseline ≧50%) proportion compared with placebo [2]: higher proportion of responders
QIDS reduction from baseline ≧50%: Subjects with Response (number) (ITT, Double Blind Week 10): 29
QIDS reduction from baseline ≧50%: Subjects with Response (percentage) (ITT, Double Blind Week 10): 22%
QIDS reduction from baseline ≧50%: Subjects without Response (number) (ITT, Double Blind Week 10): 104
QIDS reduction from baseline ≧50%: Subjects without Response (percentage) (ITT, Double Blind Week 10): 78%
QIDS score ≦5: Subjects with Remission (number) (ITT, Double Blind Week 10): 19
QIDS score ≦5: Subjects with Remission (percentage) (ITT, Double Blind Week 10): (14%)
QIDS score ≦5: Subjects without Remission (number) (ITT, Double Blind Week 10): 114
QIDS score ≦5: Subjects without Remission (percentage) (ITT, Double Blind Week 10): (86%)
QIDS reduction from baseline ≧50%: Subjects with Response (number) (ITT, Double Blind Week 12): 44
QIDS reduction from baseline ≧50%: Subjects with Response (percentage) (ITT, Double Blind Week 12): 33%
QIDS reduction from baseline ≧50%: Subjects without Response (number) (ITT, Double Blind Week 12): 89
QIDS reduction from baseline ≧50%: Subjects without Response (percentage) (ITT, Double Blind Week 12): 67%
QIDS score ≦5: Subjects with Remission (number) (ITT, Double Blind Week 12): 25
QIDS score ≦5: Subjects with Remission (percentage) (ITT, Double Blind Week 12): (19%)
QIDS score ≦5: Subjects without Remission (number) (ITT, Double Blind Week 12): 108
QIDS score ≦5: Subjects without Remission (percentage) (ITT, Double Blind Week 12): (81%)
QIDS reduction from baseline ≧50%: Subjects with Response (number) (ITT, Double Blind Week 14): 67
QIDS reduction from baseline ≧50%: Subjects with Response (percentage) (ITT, Double Blind Week 14): 50%
QIDS reduction from baseline ≧50%: Subjects without Response (number) (ITT, Double Blind Week 14): 66
QIDS reduction from baseline ≧50%: Subjects without Response (percentage) (ITT, Double Blind Week 14): 50%
QIDS score ≦5: Subjects with Remission (number) (ITT, Double Blind Week 14): 45
QIDS score ≦5: Subjects with Remission (percentage) (ITT, Double Blind Week 14): (34%)
QIDS score ≦5: Subjects without Remission (number) (ITT, Double Blind Week 14): 88
QIDS score ≦5: Subjects without Remission (percentage) (ITT, Double Blind Week 14): (66%)
QIDS reduction from baseline ≧50%: Subjects with Response (number) (ITT, Double Blind Week 16): 88
QIDS reduction from baseline ≧50%: Subjects with Response (percentage) (ITT, Double Blind Week 16): 66%
QIDS reduction from baseline ≧50%: Subjects without Response (number) (ITT, Double Blind Week 16): 45
QIDS reduction from baseline ≧50%: Subjects without Response (percentage) (ITT, Double Blind Week 16): 34%
QIDS score ≦5: Subjects with Remission (number) (ITT, Double Blind Week 16): 60
QIDS score ≦5: Subjects with Remission (percentage) (ITT, Double Blind Week 16): (45%)
QIDS score ≦5: Subjects without Remission (number) (ITT, Double Blind Week 16): 73
QIDS score ≦5: Subjects without Remission (percentage) (ITT, Double Blind Week 16): (55%)
QIDS-SR Mean Difference between TC-5214 and Placebo (ITT, Double Blind Week 16 LOCF (change from Week 8)): 3.79
QIDS reduction from baseline ≧50%: Subjects with Response (number) [3]: 92
QIDS reduction from baseline ≧50%: Subjects with Response (percentage) [3]: 69%
QIDS reduction from baseline ≧50%: Subjects without Response (number) [3]: 41
QIDS reduction from baseline ≧50%: Subjects without Response (percentage) [3]: 31%
QIDS score ≦5: Subjects with Remission (number) [3]: 75
QIDS score ≦5: Subjects with Remission (percentage) [3]: (56%)
QIDS score ≦5: Subjects without Remission (number) [3]: 58
QIDS score ≦5: Subjects without Remission (percentage) [3]: (44%)
QIDS-SR Adjusted Mean change [4]: −0.52
QIDS-SR Mean Difference between TC-5214 and Placebo [4]: 0.58
QIDS-SR Difference vs Placebo + CIT (ITT, Week 8 to Week 16 LOCF): −3.76
QIDS-SR Adj. Mean change (ITT, change from Week 8 (double-blind baseline) to Week 16 LOCF, add-on to citalopram): −8.07
QIDS-SR score change at Week 18 compared with placebo (PP population, Week 18, result in words): statistically significant decrease
QIDS reduction from baseline ≧50%: Subjects with Response (number) (PP, Double Blind Week 10): 25
QIDS reduction from baseline ≧50%: Subjects with Response (percentage) (PP, Double Blind Week 10): 22%
QIDS reduction from baseline ≧50%: Subjects without Response (number) (PP, Double Blind Week 10): 88
QIDS reduction from baseline ≧50%: Subjects without Response (percentage) (PP, Double Blind Week 10): 78%
QIDS score ≦5: Subjects with Remission (number) (PP, Double Blind Week 10): 17
QIDS score ≦5: Subjects with Remission (percentage) (PP, Double Blind Week 10): 15%
QIDS score ≦5: Subjects without Remission (number) (PP, Double Blind Week 10): 96
QIDS score ≦5: Subjects without Remission (percentage) (PP, Double Blind Week 10): 85%
QIDS reduction from baseline ≧50%: Subjects with Response (number) (PP, Double Blind Week 12): 40
QIDS reduction from baseline ≧50%: Subjects with Response (percentage) (PP, Double Blind Week 12): 35%
QIDS reduction from baseline ≧50%: Subjects without Response (number) (PP, Double Blind Week 12): 73
QIDS reduction from baseline ≧50%: Subjects without Response (percentage) (PP, Double Blind Week 12): 65%
QIDS score ≦5: Subjects with Remission (number) (PP, Double Blind Week 12): 23
QIDS score ≦5: Subjects with Remission (percentage) (PP, Double Blind Week 12): 20%
QIDS score ≦5: Subjects without Remission (number) (PP, Double Blind Week 12): 90
QIDS score ≦5: Subjects without Remission (percentage) (PP, Double Blind Week 12): 80%
QIDS reduction from baseline ≧50%: Subjects with Response (number) (PP, Double Blind Week 14): 59
QIDS reduction from baseline ≧50%: Subjects with Response (percentage) (PP, Double Blind Week 14): 52%
QIDS reduction from baseline ≧50%: Subjects without Response (number) (PP, Double Blind Week 14): 54
QIDS reduction from baseline ≧50%: Subjects without Response (percentage) (PP, Double Blind Week 14): 48%
QIDS score ≦5: Subjects with Remission (number) (PP, Double Blind Week 14): 39
QIDS score ≦5: Subjects with Remission (percentage) (PP, Double Blind Week 14): 35%
QIDS score ≦5: Subjects without Remission (number) (PP, Double Blind Week 14): 74
QIDS score ≦5: Subjects without Remission (percentage) (PP, Double Blind Week 14): 65%
QIDS reduction from baseline ≧50%: Subjects with Response (number) (PP, Double Blind Week 16): 80
QIDS reduction from baseline ≧50%: Subjects with Response (percentage) (PP, Double Blind Week 16): 71%
QIDS reduction from baseline ≧50%: Subjects without Response (number) (PP, Double Blind Week 16): 33
QIDS reduction from baseline ≧50%: Subjects without Response (percentage) (PP, Double Blind Week 16): 29%
QIDS score ≦5: Subjects with Remission (number) (PP, Double Blind Week 16): 55
QIDS score ≦5: Subjects with Remission (percentage) (PP, Double Blind Week 16): 49%
QIDS score ≦5: Subjects without Remission (number) (PP, Double Blind Week 16): 58
QIDS score ≦5: Subjects without Remission (percentage) (PP, Double Blind Week 16): 51%
QIDS-SR Adjusted Mean change [5]: −8.60
QIDS-SR Mean Difference between TC-5214 and Placebo [5]: 3.90
QIDS reduction from baseline ≧50%: Subjects with Response (number) [6]: 84
QIDS reduction from baseline ≧50%: Subjects with Response (percentage) [6]: 74%
QIDS reduction from baseline ≧50%: Subjects without Response (number) [6]: 29
QIDS reduction from baseline ≧50%: Subjects without Response (percentage) [6]: 26%
QIDS score ≦5: Subjects with Remission (number) [6]: 69
QIDS score ≦5: Subjects with Remission (percentage) [6]: 61%
QIDS score ≦5: Subjects without Remission (number) [6]: 44
QIDS score ≦5: Subjects without Remission (percentage) [6]: 39%
QIDS-SR Adjusted Mean change [7]: −0.65
QIDS-SR Mean Difference between TC-5214 and Placebo [7]: 0.84
